From US20250051293A1, “NOVEL OXADIAZOLE DERIVATIVE AND USE THEREOF” (CELROS BIOTECH, priority 2021, published 2025) come the findings set out here.

In one data set the target is T1, human NOX4 (Homo sapiens, UniProt Q9NPH5).
T1 construct: made in house; host or cells: transgenic Drosophila (Da-GAL4 driven UAS-hNOX4, dDuox RNAi background); membranes from homogenized flies
T1 sequence (Q9NPH5 1-578): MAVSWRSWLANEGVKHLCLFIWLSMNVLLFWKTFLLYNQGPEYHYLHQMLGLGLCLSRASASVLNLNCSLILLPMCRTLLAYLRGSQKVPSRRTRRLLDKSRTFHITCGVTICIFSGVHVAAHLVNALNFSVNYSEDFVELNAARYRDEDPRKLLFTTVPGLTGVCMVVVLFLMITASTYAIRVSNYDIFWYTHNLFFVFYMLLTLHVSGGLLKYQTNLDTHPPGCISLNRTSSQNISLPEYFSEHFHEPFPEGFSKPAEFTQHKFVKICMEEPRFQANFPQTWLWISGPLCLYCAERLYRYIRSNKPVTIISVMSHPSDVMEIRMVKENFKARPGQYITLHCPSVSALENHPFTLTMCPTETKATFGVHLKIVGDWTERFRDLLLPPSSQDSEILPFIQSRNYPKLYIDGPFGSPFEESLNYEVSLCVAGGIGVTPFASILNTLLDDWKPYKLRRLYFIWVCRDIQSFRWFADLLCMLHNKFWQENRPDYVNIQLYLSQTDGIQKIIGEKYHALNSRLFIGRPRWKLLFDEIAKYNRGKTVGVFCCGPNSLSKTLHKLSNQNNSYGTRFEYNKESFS
Kind of data set: Lucigenin chemiluminescence assay, drosophila membranes expressing hNOX4. The conditions noted are these: average of three repeats. The class given is biochemical. As for the experimental part:
Human NOX isozymes were provided from transgenic flies expressing human NOX isozymes from the daughterless (Da)-GAL4 promoter. The genotype of each fly line is shown below. • human NOX2:UAS-hNOX2/UAS-dDuox-RNAi; Da-GAL4/+ • human NOX4:UAS-hNOX4/UAS-dDuox-RNAi; Da-GAL4/+
Transgenic flies were homogenized in PBS containing protease inhibitors (aprotinin, leupeptin) to obtain drosophila membranes of each NOX isozyme. The membranes were incubated with the compounds (100 μM, 10 μM, 1 μM, 0.1 μM, 0.01 μM, 0.001 μM, and 0 μM) for 10 minutes in a shaker. Then, to the membranes, a mixture of 500 μM NADPH (R-nicotinamide adenine dinucleotide 2′-phosphate reduced tetrasodium salt hydrate; Sigma-Aldrich) and 400 μM lucigenin (N,N′-dimethyl-9,9-biacridinium dinitrate; Sigma-Aldrich) in 1× HEPES (4-(2-hydroxyethyl)-1-piperazineethanesulfonic acid) buffer was added. Lucigenin chemiluminescence was detected at 1-minute intervals for 10 minutes using a multimode microplate reader (SpectraMax iD3, Molecular Devices). IC50 values were calculated with Graph-Pad Prism 5 (GraphPad Software).
The lucigenin chemiluminescence assay was performed with drosophila membranes expressing hNOX1, hNOX2, and hNOX4. The assay was repeated three times and the IC50 values were averaged.

Data set [1] in a line: Cytotoxicity experiment (MTT assay) HT-22. The class given is cell-based. The conditions noted are these: mouse, HT-22 cells. As for the experimental part:
(§1) HepG2 (human hepatocellular carcinoma) and HT-22 (mouse hippocampal neuronal cell line) were seeded at densities of 1×10^5 or 1.5×10^4 per well in a 48-well plate and incubated for at least 12 hours, then treated with compounds of Example 1 and Example 2 at various concentrations (0 nM, 1 nM, 10 nM, 100 nM, 1000 nM, 10000 nM, 100000 nM, and 1000000 nM) and incubated for 24 hours. MTT solution (Thiazolyl Blue Tetrazolium Bromide 2 mg/ml) was subsequently added at 30 μl per well. After incubation for 4 hours, the culture medium containing the MTT solution was removed and 300 μl of DMSO was added to dissolve the MTT-formazan. 100 μl of the solution in each well was transferred to a 96-well plate and the absorbance was measured at 570 nm. IC50 values were calculated with Graph-Pad Prism 5 (GraphPad Software). The cell viability of the groups treated with the compounds of Example 1 and Example 2 at each concentration was determined relative to control group in which HepG2 cells were treated with DMSO alone, in at least five replicates.
Background: Tetrazolium dyes change colour on reduction, which living cells bring about.

The subject of another data set is U87. Kind of data set: Mouse model xenografted with brain tumor glioblastoma U87. The class given is in vivo, mice. Here is the method: To confirm the therapeutic effect on brain tumor glioblastoma, U87 (5×10^4), a human brain tumor cell line, was xenografted into the brains of mice to establish a brain tumor model, followed by oral administration of the drugs.
Different experimental groups were evaluated for each compound.
First, with respect to the compound of Example 1, the experimental groups were divided into Vehicle (n=3) and the compound of Example 1, 50 mg/kg (n=3) and the administered with the drug orally 5 times a week 20 days after U87 xenografting.
With respect to the compound of Example 2, the experimental groups were divided into Vehicle (n=9), TMZ 5 mg/kg (Temozolomide, n=10, 2 times per week), the compound of Example 2, 50 mg/kg (n=8, 5 times per week), and combination (TMZ+the compound of Example 2, n=7), and began receiving the drug 20 days after U87 xenografting.

The nature of data set [2]: Cytotoxicity experiment (MTT assay) HepG2. The class given is cell-based. The conditions noted are these: human, HepG2 cells. As for the experimental part: as §1
Another data set is described as follows: PAMPA-BBB assay. The class given is in vitro ADME. The conditions noted are these: incubation 4 hr, pH 7.4, 25° C., U.V, read-out: Permeability Pe. As for the experimental part: The parallel artificial membrane permeability assay (PAMPA) was performed to determine the brain barrier blood (BBB) permeability. […] For the Blank measurement, the donor buffer was dispensed into a high sensitivity UV plate at 150 μl per well and the UV values were measured (Blank sample). For the initial value measurement, the mixture in the deep well plate was dispensed 150 μl per well into the UV plate and the UV values were measured (initial sample). Next, 200 μl of the test compound mixture was dispensed onto the donor plate of the PAMPA sandwich, and the acceptor plate of the PAMPA sandwich was inverted and the membrane was coated with 5 μl of BBB-lipid solution. Then, 200 μl of acceptor sink buffer was added to each well of the acceptor plate, and the acceptor plate and donor plate were combined and incubated at 25° C. for 4 hours. […] Finally, the permeability (Pe(10^−6 cm/sec)) was analyzed using the PAMPA explore program. The experiment was performed in three replicates. The permeability of the material was analyzed by UV measurement and LC-MS/MS, the specific conditions of which are described below.

[3] abbreviates: Example 1 study: 50 mg/kg orally 5 times a week.

Turning to `O=C(Nc1nnc(-c2cccc(Cl)c2)o1)c1cc(F)cc(C(F)(F)F)c1` [Example 1, N-(5-(3-chlorophenyl)-1,3,4-oxadiazol-2-yl)-3-fluoro-5-(trifluoromethyl)benzamide], the half-maximal inhibitory concentration (IC50) against human NOX4 was found to be 0.16 µM. Further, in data set [1], the IC50 at 24 h amounted to 2 µM. In addition, in the data set on U87 (setting [3]), the “brain tumor growth (MRI)” value is recorded as “inhibition of brain tumor growth” and the “extension of median survival compared to the vehicle group” value is recorded as 17 days. The median survival in the data set on U87 (Example 1 study: 50 mg/kg orally 5 times a week from 20 days after U87 xenografting, vehicle 31 days) was determined as 48 days. The compound also displayed a half-inhibitory concentration (IC50) at 24 h in data set [2] of 4.2 µM. Further, the Papp at 4 h, 50 μM in “PAMPA-BBB assay” (50 μM) is more than 0.4 ×10⁻⁶ cm/s.

With `O=C(Nc1nnc(-c2ccccc2)o1)c1ccc(F)c(C(F)(F)F)c1` [Example 2, 4-fluoro-N-(5-phenyl-1,3,4-oxadiazol-2-yl)-3-(trifluoromethyl)benzamide], the midpoint of inhibition at human NOX4, the IC50, lay at 0.44 µM. In addition, the figures for the IC50 at 24 h in data set [1] and in data set [2] were 5.5 µM and 1100 µM, respectively. In the data set on U87 (Example 2 study: Example 2 50 mg/kg 5 times per week, TMZ 5 mg/kg 2 times per week), the “tumor growth rate (MRI)” value is “inhibited the tumor growth rate”. In addition, in the data set with U87 (Example 2 study: Example 2 50 mg/kg 5 times per week, TMZ 5 mg/kg 2 times per week, from 20 days after xenografting, vehicle 42 days), the median survival time stood at 46 days. Also, the Papp at 4 h, 10 μM in the data set “PAMPA-BBB assay” (10 μM) is more than 0.4 ×10⁻⁶ cm/s.

The IC50 is the midpoint of a concentration-inhibition curve. Read a low IC50 as inhibition by little substance.
